Results as given in ChEMBL document CHEMBL1126358, “New hexahydroxydiphenyl derivatives as potent inhibitors of HIV replication in H9 lymphocytes” (Bioorg Med Chem Lett, 1992).

Experiments:
[1] = tested on: H9; assay: Concentration which inhibits uninfected cell growth of HIV by 50% (IC50>140 uM) in acutely infected H9 lymphocyte cells was determined; type: functional, cell-based; settings: Homo sapiens
[2] = tested on: H9; assay: Concentration of compound which inhibits virus replication of HIV by 50% (EC50 of 10 uM) in acutely infected H9 lymphocyte cells was determined; type: functional, cell-based; settings: Homo sapiens

Structure (SMILES) | IC50 [1] [µM] | EC50 [2] [µM]
BrCc1cc(OCc2ccccc2)c(OCc2ccccc2)c(OCc2ccccc2)c1-c1c(CBr)cc(OCc2ccccc2)c(OCc2ccccc2)c1OCc1ccccc1 | > 100 | > 100
COc1c(OCc2ccccc2)c(OCc2ccccc2)cc(CBr)c1-c1c(CBr)cc(OCc2ccccc2)c(OCc2ccccc2)c1OC | 30 | 13
O=Cc1cc(OCc2ccccc2)c(OCc2ccccc2)c(OCc2ccccc2)c1-c1c(C=O)cc(OCc2ccccc2)c(OCc2ccccc2)c1OCc1ccccc1 | 70 | 45
COc1c(OCc2ccccc2)c(OCc2ccccc2)cc(C=O)c1-c1c(C=O)cc(OCc2ccccc2)c(OCc2ccccc2)c1OC | 4 | 2
COc1c(OCc2ccccc2)c(OCc2ccccc2)cc(CO)c1-c1c(CO)cc(OCc2ccccc2)c(OCc2ccccc2)c1OC | > 140 | 10
OCc1cc(OCc2ccccc2)c(OCc2ccccc2)c(OCc2ccccc2)c1-c1c(CO)cc(OCc2ccccc2)c(OCc2ccccc2)c1OCc1ccccc1 | > 120 | > 120
OCc1cc(OCc2ccccc2)c(OCc2ccccc2)c(O)c1-c1c(CO)cc(OCc2ccccc2)c(OCc2ccccc2)c1O | 13 | 6
Cc1cn([C@H]2C[C@H](N=[N+]=[N-])[C@@H](CO)O2)c(=O)[nH]c1=O [ZIDOVUDINE] | 2000 | 0.04
